This passage reports IC50 results from patent EP0823908B1, “PYRIDO[2,3-d]PYRIMIDINES FOR INHIBITING PROTEIN TYROSINE KINASE MEDIATED [sequence] PROLIFERATION” (Warner-Lambert Company LLC, priority 1995, dated 1996).

For test [1], the target named is T1, mouse PDGF-β receptor tyrosine kinase (Mus musculus, UniProt P05622).
T1 construct: amplify a fragment of DNA that codes for the intracellular tyrosine kinase domain; made in house; host or cells: SF9 insect cells (baculovirus)
Put plainly: PDGF receptor tyrosine kinase assay (32P incorporation into glutamate-tyrosine co-polymer). It counts as biochemical. To be noted: read-out: PDGFr-TK IC50. An outline of the steps: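 32P transfer from γ32P-ATP (50 µM ATP) to poly(Glu,Tyr) 4:1 was measured over 10 min at 25°C and counted after TCA precipitation onto filters, minus the no-enzyme background. Enzyme was baculovirus/SF9 lysate of the kinase domain, preincubated 10 min with inhibitor in Hepes pH 7.0, MnCl2, vanadate.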

The next test deals with PDGF receptor. Put plainly: PDGF receptor autophosphorylation in rat aorta smooth muscle cells. It counts as cell-based. To be noted: read-out: Inhibition of PDGF-Stimulated Receptor Auto Phosphorylation in Rat Aortic Smooth Muscle Cells (IC50); PDGF-BB 30 ng/mL for 5 minutes after 2 hours with compound. As for the experimental part:
Rat aorta smooth muscle cells (RASMC) were isolated from the thoracic aorta of rats and explanted according to the method of Ross, J. Cell. Biol., 30:172-186 (1971). Cells were grown in Dulbecco's modified Eagle's medium (DMEM, Gibco) containing 10% fetal calf serum (FBS, Hyclone, Logan, Utah), 1% glutamine (Gibco) and 1% penicillin/streptomycin (Gibco). Cells were identified as smooth muscle cells by their "hill and valley" growth pattern and by fluorescent staining with a monoclonal antibody specific for SMC ∝-actin (Sigma). RASMC were used between passages 5 and 20 for all experiments. Test compounds were prepared in dimethylsulfoxide (DMSO) in order to achieve consistency in the vehicle and to ensure compound solubility. Appropriate DMSO controls were simultaneously evaluated with the test compounds.
RASMC were grown to confluency in 100 mm dishes. Growth medium was removed and replaced with serum-free medium and cells were incubated at 37°C for an additional 24 hours. Test compounds were then added directly to the medium and cells incubated for an additional 2 hours. After 2 hours, PDGF-BB was added at a final concentration of 30 ng/mL for 5 minutes at 37°C to stimulated autophosphorylation of the PDGF receptor. Following growth factor treatment, the medium was removed, and cells were washed with cold phosphate-buffered saline and immediately lysed with 1 mL of lysis buffer (50 mM HEPES[pH 7.5], 150 mM NaCl, 10% glycerol, 1% Triton X-100, 1 mM EDTA, 1 mMEGTA, 50 mM NaF, 1 mM sodium orthovanadate, 30 mM p-nitrophenyl phosphate, 10 mM sodium pyrophosphate, 1 mM phenylmethyl sulfonyl fluoride, 10 µg/mL aprotinin, and 10 µg/mL leupeptin). Lysates were centrifuged at 10,000 × g for 10 minutes. […] Following the incubation, protein-A-sepharose beads were added for 2 hours with continuous mixing, and immune complexes bound to the beads washed four times with 1 mL lysis wash buffer. Immune complexes were solubilized in 30 µL of Laemmli sample buffer and electrophoresed in 4-20% SDS polyacrylamide gels. Following electrophoresis, separated proteins were transferred to nitrocellulose and immunoblotted with anti-phosphotyrosine antiserum. […] IC50 values were generated from the densitometric data.

The structures appear in SMILES notation.

T1 sequence (P05622 599-961 limits assumed): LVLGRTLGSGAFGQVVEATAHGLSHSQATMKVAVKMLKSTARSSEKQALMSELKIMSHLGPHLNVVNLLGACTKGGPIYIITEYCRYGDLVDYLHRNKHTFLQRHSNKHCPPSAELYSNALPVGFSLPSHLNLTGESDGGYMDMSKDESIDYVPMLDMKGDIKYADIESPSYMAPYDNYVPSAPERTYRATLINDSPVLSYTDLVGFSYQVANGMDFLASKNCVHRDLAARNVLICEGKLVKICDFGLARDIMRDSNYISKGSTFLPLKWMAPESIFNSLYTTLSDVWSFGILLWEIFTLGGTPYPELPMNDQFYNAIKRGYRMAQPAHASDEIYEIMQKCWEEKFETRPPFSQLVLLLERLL

Consider `Cn1c(=O)c(-c2c(Cl)cccc2Cl)cc2cnc(Nc3ccccc3)nc21` [Example 54, 6-(2,6-Dichlorophenyl)-8-methyl-2-phenylamino-8H-pyrido[2,3-d]pyrimidin-7-one], for which the values for the IC50 (in test [1]; with PDGF receptor) were 231 nM and 16 nM, respectively.
